In ChEMBL document CHEMBL3045024, “Synthesis, structure and insecticidal activities of some novel amides containing N-pyridylpyrazole moeities” (2012):
Calls of active or inactive are those of the source. No cut-off for these calls is given here.

Columns and labels:
Mythimna separata [1] = assay: Insecticidal activity against fourth-instar larvae of Mythimna separata (Oriental armyworm) reared on compound pre-treated corn leaves assessed as mortality at 200 ug/mL measured 72 hr post compound treatment by leaf-dipping assay; type: functional
Culex pipiens pallens = assay: Insecticidal activity against Culex pipiens pallens (mosquito) fourth-instar larvae assessed as mortality at 2 ug/mL measured 72 hr post compound treatment; type: functional
Mythimna separata [2] = assay: Insecticidal activity against fourth-instar larvae of Mythimna separata (Oriental armyworm) reared on compound pre-treated corn leaves assessed as mortality at 50 ug/mL measured 72 hr post compound treatment by leaf-dipping assay; type: functional
Mythimna separata [3] = assay: Insecticidal activity against fourth-instar larvae of Mythimna separata (Oriental armyworm) reared on compound pre-treated corn leaves assessed as mortality at 100 ug/mL measured 72 hr post compound treatment by leaf-dipping assay; type: functional
Mythimna separata [4] = assay: Insecticidal activity against fourth-instar larvae of Mythimna separata (Oriental armyworm) reared on compound pre-treated corn leaves assessed as mortality at 25 ug/mL measured 72 hr post compound treatment by leaf-dipping assay; type: functional
Mythimna separata [5] = assay: Insecticidal activity against fourth-instar larvae of Mythimna separata (Oriental armyworm) reared on compound pre-treated corn leaves assessed as mortality at 10 ug/mL measured 72 hr post compound treatment by leaf-dipping assay; type: functional
Spodoptera exigua [6] = assay: Insecticidal activity against Spodoptera exigua third-instar larvae infested on compound pre-treated cabbage leaves assessed as mortality at 100 ug/mL measured 3 days post compound treatment by leaf-dipping assay; type: functional
Plutella xylostella [7] = assay: Insecticidal activity against Plutella xylostella (diamondback moth) second-instar larvae infested on compound pre-treated cabbage leaves assessed as mortality at 50 ug/mL measured 3 days post compound treatment by leaf-dipping assay; type: functional
Plutella xylostella [8] = assay: Insecticidal activity against Plutella xylostella (diamondback moth) second-instar larvae infested on compound pre-treated cabbage leaves assessed as mortality at 25 ug/mL measured 3 days post compound treatment by leaf-dipping assay; type: functional
Plutella xylostella [9] = assay: Insecticidal activity against Plutella xylostella (diamondback moth) second-instar larvae infested on compound pre-treated cabbage leaves assessed as mortality at 200 ug/mL measured 3 days post compound treatment by leaf-dipping assay; type: functional
Plutella xylostella [10] = assay: Insecticidal activity against Plutella xylostella (diamondback moth) second-instar larvae infested on compound pre-treated cabbage leaves assessed as mortality at 100 ug/mL measured 3 days post compound treatment by leaf-dipping assay; type: functional
Spodoptera exigua [11] = assay: Insecticidal activity against Spodoptera exigua third-instar larvae infested on compound pre-treated cabbage leaves assessed as mortality at 25 ug/mL measured 3 days post compound treatment by leaf-dipping assay; type: functional
Spodoptera exigua [12] = assay: Insecticidal activity against Spodoptera exigua third-instar larvae infested on compound pre-treated cabbage leaves assessed as mortality at 200 ug/mL measured 3 days post compound treatment by leaf-dipping assay; type: functional
Spodoptera exigua [13] = assay: Insecticidal activity against Spodoptera exigua third-instar larvae infested on compound pre-treated cabbage leaves assessed as mortality at 50 ug/mL measured 3 days post compound treatment by leaf-dipping assay; type: functional
Mythimna separata [14] = assay: Insecticidal activity against fourth-instar larvae of Mythimna separata (Oriental armyworm) reared on compound pre-treated corn leaves assessed as mortality at 5 ug/mL measured 72 hr post compound treatment by leaf-dipping assay; type: functional
Mythimna separata [15] = assay: Insecticidal activity against fourth-instar larvae of Mythimna separata (Oriental armyworm) reared on compound pre-treated corn leaves assessed as induction of abnormal symptoms at 10 ug/mL measured 36 hr post compound treatment by leaf-dipping assay; type: functional, organism-based

## O=C(Nc1ccc([N+](=O)[O-])cc1)c1cc(Br)nn1-c1ncccc1Cl
Mythimna separata [1]
  mortality at 200 µg/mL: 100%
Culex pipiens pallens
  mortality at 2 µg/mL: 20%
Mythimna separata [2]
  mortality at 50 µg/mL: 20%
Mythimna separata [3]
  mortality at 100 µg/mL: 90%

## Cc1ccc(NC(=O)c2cc(Br)nn2-c2ncccc2Cl)c(C)c1
Mythimna separata [1]
  mortality at 200 µg/mL: 100%
Mythimna separata [2]
  mortality at 50 µg/mL: 0%
Mythimna separata [3]
  mortality at 100 µg/mL: 70%

## O=C(Nc1ccc(I)cc1)c1cc(Br)nn1-c1ncccc1Cl
Mythimna separata [1]
  mortality at 200 µg/mL: 100%
Culex pipiens pallens
  mortality at 2 µg/mL: 100%
Mythimna separata [2]
  mortality at 50 µg/mL: 50%
Mythimna separata [3]
  mortality at 100 µg/mL: 100%

## Cc1cc([N+](=O)[O-])cc(Cl)c1NC(=O)c1cc(Br)nn1-c1ncccc1Cl
Mythimna separata [1]
  mortality at 200 µg/mL: 100%
Mythimna separata [4]
  mortality at 25 µg/mL: 70%
Mythimna separata [5]
  mortality at 10 µg/mL: 30%
Mythimna separata [2]
  mortality at 50 µg/mL: 100%
Mythimna separata [3]
  mortality at 100 µg/mL: 100%

## Cc1cccc([N+](=O)[O-])c1NC(=O)c1cc(Br)nn1-c1ncccc1Cl
Mythimna separata [1]
  mortality at 200 µg/mL: 100%
Culex pipiens pallens
  mortality at 2 µg/mL: 50%
Mythimna separata [2]
  mortality at 50 µg/mL: 20%
Mythimna separata [3]
  mortality at 100 µg/mL: 80%

## O=C(Nc1cccc(Cl)c1)c1cc(Br)nn1-c1ncccc1Cl
Mythimna separata [1]
  mortality at 200 µg/mL: 0%

## CCOc1ccc(NC(=O)c2cc(Br)nn2-c2ncccc2Cl)cc1
Mythimna separata [1]
  mortality at 200 µg/mL: 100%
Culex pipiens pallens
  mortality at 2 µg/mL: 30%
Mythimna separata [3]
  mortality at 100 µg/mL: 0%

## O=C(Nc1ccc(F)cc1)c1cc(Br)nn1-c1ncccc1Cl
Spodoptera exigua [6]
  mortality at 100 µg/mL: 100%
Mythimna separata [1]
  mortality at 200 µg/mL: 100%
Mythimna separata [4]
  mortality at 25 µg/mL: 50%
Plutella xylostella [7]
  mortality at 50 µg/mL: 99%
Plutella xylostella [8]
  mortality at 25 µg/mL: 88%
Plutella xylostella [9]
  mortality at 200 µg/mL: 100%
Culex pipiens pallens
  mortality at 2 µg/mL: 0%
Plutella xylostella [10]
  mortality at 100 µg/mL: 98%
Spodoptera exigua [11]
  mortality at 25 µg/mL: 96%
Mythimna separata [2]
  mortality at 50 µg/mL: 100%
Mythimna separata [3]
  mortality at 100 µg/mL: 100%
Spodoptera exigua [12]
  mortality at 200 µg/mL: 95%
Spodoptera exigua [13]
  mortality at 50 µg/mL: 92%

## Cc1cc(Cl)cc(C)c1NC(=O)c1cc(Br)nn1-c1ncccc1Cl
Spodoptera exigua [6]
  mortality at 100 µg/mL: 100%
Mythimna separata [1]
  mortality at 200 µg/mL: 100%
Mythimna separata [4]
  mortality at 25 µg/mL: 80%
Plutella xylostella [7]
  mortality at 50 µg/mL: 97%
Plutella xylostella [8]
  mortality at 25 µg/mL: 94%
Plutella xylostella [9]
  mortality at 200 µg/mL: 100%
Culex pipiens pallens
  mortality at 2 µg/mL: 30%
Mythimna separata [5]
  mortality at 10 µg/mL: 20%
Plutella xylostella [10]
  mortality at 100 µg/mL: 100%
Spodoptera exigua [11]
  mortality at 25 µg/mL: 94%
Mythimna separata [2]
  mortality at 50 µg/mL: 100%
Mythimna separata [3]
  mortality at 100 µg/mL: 100%
Spodoptera exigua [12]
  mortality at 200 µg/mL: 100%
Spodoptera exigua [13]
  mortality at 50 µg/mL: 98%

## Cc1cc(Br)cc(C)c1NC(=O)c1cc(Br)nn1-c1ncccc1Cl
Spodoptera exigua [6]
  mortality at 100 µg/mL: 100%
Mythimna separata [1]
  mortality at 200 µg/mL: 100%
Mythimna separata [4]
  mortality at 25 µg/mL: 100%
Plutella xylostella [7]
  mortality at 50 µg/mL: 0%
Plutella xylostella [9]
  mortality at 200 µg/mL: 89%
Culex pipiens pallens
  mortality at 2 µg/mL: 30%
Mythimna separata [5]
  mortality at 10 µg/mL: 30%
Plutella xylostella [10]
  mortality at 100 µg/mL: 72%
Spodoptera exigua [11]
  mortality at 25 µg/mL: 93%
Mythimna separata [2]
  mortality at 50 µg/mL: 100%
Mythimna separata [3]
  mortality at 100 µg/mL: 100%
Spodoptera exigua [12]
  mortality at 200 µg/mL: 100%
Spodoptera exigua [13]
  mortality at 50 µg/mL: 89%

## O=C(Nc1cc(Cl)ccc1Cl)c1cc(Br)nn1-c1ncccc1Cl
Mythimna separata [1]
  mortality at 200 µg/mL: 0%
Culex pipiens pallens
  mortality at 2 µg/mL: 10%

## O=C(Nc1ccc([N+](=O)[O-])cc1Br)c1cc(Br)nn1-c1ncccc1Cl
Spodoptera exigua [6]
  mortality at 100 µg/mL: 100%
Mythimna separata [1]
  mortality at 200 µg/mL: 100%
Plutella xylostella [7]
  mortality at 50 µg/mL: 96%
Plutella xylostella [8]
  mortality at 25 µg/mL: 90%
Plutella xylostella [9]
  mortality at 200 µg/mL: 100%
Culex pipiens pallens
  mortality at 2 µg/mL: 40%
Plutella xylostella [10]
  mortality at 100 µg/mL: 98%
Spodoptera exigua [11]
  mortality at 25 µg/mL: 100%
Mythimna separata [2]
  mortality at 50 µg/mL: 30%
Mythimna separata [3]
  mortality at 100 µg/mL: 100%
Spodoptera exigua [12]
  mortality at 200 µg/mL: 100%
Spodoptera exigua [13]
  mortality at 50 µg/mL: 100%

## Cc1cc(Cl)cc([N+](=O)[O-])c1NC(=O)c1cc(Br)nn1-c1ncccc1Cl
Spodoptera exigua [6]
  mortality at 100 µg/mL: 100%
Mythimna separata [1]
  mortality at 200 µg/mL: 100%
Mythimna separata [4]
  mortality at 25 µg/mL: 60%
Plutella xylostella [7]
  mortality at 50 µg/mL: 84%
Plutella xylostella [8]
  mortality at 25 µg/mL: 76%
Plutella xylostella [9]
  mortality at 200 µg/mL: 95%
Culex pipiens pallens
  mortality at 2 µg/mL: 20%
Plutella xylostella [10]
  mortality at 100 µg/mL: 89%
Spodoptera exigua [11]
  mortality at 25 µg/mL: 92%
Mythimna separata [2]
  mortality at 50 µg/mL: 100%
Mythimna separata [3]
  mortality at 100 µg/mL: 100%
Spodoptera exigua [12]
  mortality at 200 µg/mL: 98%
Spodoptera exigua [13]
  mortality at 50 µg/mL: 95%

## Cc1cc([N+](=O)[O-])ccc1NC(=O)c1cc(Br)nn1-c1ncccc1Cl
Mythimna separata [1]
  mortality at 200 µg/mL: 100%
Mythimna separata [4]
  mortality at 25 µg/mL: 80%
Culex pipiens pallens
  mortality at 2 µg/mL: 40%
Mythimna separata [5]
  mortality at 10 µg/mL: 50%
Mythimna separata [2]
  mortality at 50 µg/mL: 100%
Mythimna separata [3]
  mortality at 100 µg/mL: 100%

## O=C(Nc1ccc([N+](=O)[O-])cc1Cl)c1cc(Br)nn1-c1ncccc1Cl
Spodoptera exigua [6]
  mortality at 100 µg/mL: 86%
Mythimna separata [1]
  mortality at 200 µg/mL: 100%
Mythimna separata [4]
  mortality at 25 µg/mL: 100%
Plutella xylostella [7]
  mortality at 50 µg/mL: 0%
Plutella xylostella [9]
  mortality at 200 µg/mL: 78%
Culex pipiens pallens
  mortality at 2 µg/mL: 80%
Mythimna separata [14]
  mortality at 5 µg/mL: 0%
Mythimna separata [5]
  mortality at 10 µg/mL: 80%
Plutella xylostella [10]
  mortality at 100 µg/mL: 72%
Spodoptera exigua [11]
  mortality at 25 µg/mL: 65%
Mythimna separata [2]
  mortality at 50 µg/mL: 100%
Mythimna separata [3]
  mortality at 100 µg/mL: 100%
Mythimna separata [15]
  Activity: Active
Spodoptera exigua [12]
  mortality at 200 µg/mL: 91%
Spodoptera exigua [13]
  mortality at 50 µg/mL: 78%

## O=C(Nc1ccc(Cl)cc1)c1cc(Br)nn1-c1ncccc1Cl
Spodoptera exigua [6]
  mortality at 100 µg/mL: 100%
Mythimna separata [1]
  mortality at 200 µg/mL: 100%
Mythimna separata [4]
  mortality at 25 µg/mL: 70%
Plutella xylostella [7]
  mortality at 50 µg/mL: 100%
Plutella xylostella [8]
  mortality at 25 µg/mL: 97%
Plutella xylostella [9]
  mortality at 200 µg/mL: 100%
Culex pipiens pallens
  mortality at 2 µg/mL: 10%
Mythimna separata [5]
  mortality at 10 µg/mL: 0%
Plutella xylostella [10]
  mortality at 100 µg/mL: 98%
Spodoptera exigua [11]
  mortality at 25 µg/mL: 100%
Mythimna separata [2]
  mortality at 50 µg/mL: 100%
Mythimna separata [3]
  mortality at 100 µg/mL: 100%
Spodoptera exigua [12]
  mortality at 200 µg/mL: 100%
Spodoptera exigua [13]
  mortality at 50 µg/mL: 100%

## CNC(=O)c1cc(Cl)cc(C)c1NC(=O)c1cc(Br)nn1-c1ncccc1Cl [CHLORANTRANILIPROLE]
Plutella xylostella [7]
  mortality at 50 µg/mL: 100%
Plutella xylostella [8]
  mortality at 25 µg/mL: 94%
Culex pipiens pallens
  mortality at 2 µg/mL: 100%
Mythimna separata [14]
  mortality at 5 µg/mL: 100%
Spodoptera exigua [11]
  mortality at 25 µg/mL: 100%
Mythimna separata [15]
  Activity: Active
Spodoptera exigua [13]
  mortality at 50 µg/mL: 100%

## O=C(Nc1ccc(F)c(Cl)c1)c1cc(Br)nn1-c1ncccc1Cl
Mythimna separata [1]
  mortality at 200 µg/mL: 100%
Mythimna separata [3]
  mortality at 100 µg/mL: 0%

## Cc1cccc(C)c1NC(=O)c1cc(Br)nn1-c1ncccc1Cl
Mythimna separata [1]
  mortality at 200 µg/mL: 100%
Mythimna separata [2]
  mortality at 50 µg/mL: 40%
Mythimna separata [3]
  mortality at 100 µg/mL: 80%

## O=C(Nc1ccc(Cl)cc1[N+](=O)[O-])c1cc(Br)nn1-c1ncccc1Cl
Mythimna separata [1]
  mortality at 200 µg/mL: 10%
Culex pipiens pallens
  mortality at 2 µg/mL: 40%
